pIC50: −log10 of the molar value. Where “and” joins values, the source holds several entries; their conditions need not be identical. Equal values may be shown once. Calls of active or inactive are those of the source.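 The calls were made as follows: active = mean IC50 below 5 µM in the confirmatory dose response test; inactive = the rest.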
Test system: AML12 mouse hepatocytes, BODIPY lipid droplet imaging
Experiment: inhibitors of hepatocyte lipid droplet formation, SAR follow-up, imaging, AML12 mouse hepatocytes, set 2 (AID 504440)

With `CCOc1ccc(CCNC(=O)c2ccc(N3CCOCC3)s2)cc1OCC` the pIC50 was 6.42.
In the case of `COc1cc(CNC(=O)c2cc3ccsc3n2C)cc(OC)c1OC`, the IC50 was > 10000 nM (inactive).
For `COc1ccc(CCNC(=O)COC(=O)c2cc(OC)c(OC)cc2OC)cc1OC`, the IC50 was > 10000 nM (inactive).
`COc1ccc(NC(=O)c2cc3ccsc3n2C)cc1OC` was tested, and the IC50 was > 10000 nM (inactive).
`COc1ccc(CNC(=O)c2cc(-c3ccccc3)c(N3CCOCC3)s2)cc1OC` gave a pIC50 of 7.00.
Work on `CCOc1ccc(CCNC(=O)CCC(=O)N2CCOc3ccccc32)cc1OCC` yielded a pIC50 of 6.70.
For `CCOc1cc(CCNC(=O)c2cc(-c3ccccc3)c(N3CCOCC3)s2)ccc1OC`, the pIC50 was 7.37.
Compound `CCOc1ccc(CCNC(=O)CCc2nc(-c3ccc(OC)cc3)no2)cc1OCC` has a pIC50 of 6.69.
In the case of `Cn1c(C(=O)NCc2ccc3c(c2)OCO3)cc2ccsc21`, the IC50 was > 10000 nM (inactive).
Work on `CCOc1ccc(CCNC(=O)c2cc3ccsc3n2CC)cc1OC` yielded a pIC50 of 6.30.
Work on `CCn1c(C(=O)NCCc2ccc(OC)c(OC)c2)cc2sc(Cl)cc21` yielded a pIC50 of 5.87.
`CCOc1ccc(CCNC(=O)c2cc3sccc3n2CC)cc1OCC` was tested, and the pIC50 was 7.40.
`CCOc1ccc(CCNC(=O)c2cc3ccsc3n2C)cc1OCC` was tested, and the pIC50 was 6.86.
`CCOc1ccc(CCNC(=O)CN2CCN(Cc3ccccc3C)C2=O)cc1OCC` showed a pIC50 of 6.46.
`CCOc1ccc(CCNC(=O)CCOc2cc(C)ccc2C)cc1OCC` gave a pIC50 of 7.17.
Compound `CCOc1ccc(CCNC(=O)CSc2cc(=O)n(C)c3cc(Cl)ccc23)cc1OCC` has a pIC50 of 6.30.
Compound `CCOc1ccc(CCNC(=O)C2CC=CCC2C(=O)OC(C)C)cc1OCC` (stereo not drawn) has a pIC50 of 6.59.
`CCOc1cc(CCNC(=O)c2cc3sccc3[nH]2)ccc1OC` was tested, and the pIC50 was 5.66.
For `CCOc1cc(CCNC(=O)COc2cc(=O)n(C)c3ccccc23)ccc1OC`, the IC50 was 8930 nM (inactive).
For `COc1ccc(CCNC(=O)Cn2cccc2C(=O)c2ccccc2C)cc1OC`, the IC50 was > 10000 nM (inactive).
Work on `CCn1c(C(=O)NCc2cc(OC)c(OC)c(OC)c2)cc2ccsc21` yielded a pIC50 of 5.52.
In the case of `CCOc1cc(CCNC(=O)CSc2cc(=O)n(C)c3ccccc23)ccc1OC`, the IC50 was 6380 nM (inactive).
`CCOc1ccc(CCNC(=O)CSc2cc(=O)n(C)c3ccccc23)cc1OC` showed a pIC50 of 5.52.
`CCn1c(C(=O)Nc2ccc(OC)c(OC)c2)cc2ccsc21` was tested, and the IC50 was > 10000 nM (inactive).
`COc1ccc(CNC(=O)c2ccc(N3CCOCC3)s2)cc1OC` was tested, and the IC50 was > 10000 nM (inactive).
With `O=C(NCCc1ccc2c(c1)OCO2)c1ccc(N2CCOCC2)s1` the IC50 was > 10000 nM (inactive).
Compound `CCOc1ccc(CCNC(=O)Cn2nc(C)c3c(C)n(-c4ccccc4)nc3c2=O)cc1OCC` has a pIC50 of 6.73.
For `CCOc1ccc(CCNC(=O)CSc2cc(=O)n(C)c3ccccc23)cc1OCC`, the pIC50 was 6.25 and 6.28.
With `CCOc1ccc(CCNC(=O)COc2cc(=O)n(C)c3ccccc23)cc1OCC` the pIC50 was 6.02.
`CCOc1ccc(CCNC(=O)c2cc(-c3ccccc3)c(N3CCOCC3)s2)cc1OC` was tested, and the pIC50 was 7.67.
`Cn1c(C(=O)Nc2ccc3c(c2)OCO3)cc2ccsc21` was tested, and the IC50 was > 10000 nM (inactive).
`CCOc1ccc(CCNC(=O)c2cc3ccsc3n2CC)cc1OCC` showed a pIC50 of 7.11.
`CCn1c(C(=O)NCCc2ccc(OC)c(OC)c2)cc2ccsc21` gave a pIC50 of 5.67.
`CCOc1ccc(CCNC(=O)Cn2ncn3nc(-c4ccc(OC)cc4)cc3c2=O)cc1OCC` was tested, and the pIC50 was 6.89.
Compound `CCOc1ccc(CCNC(=O)CCc2nnc3ccc(N4CCCCC4)nn23)cc1OCC` has a pIC50 of 6.70.
`CCn1c(C(=O)NCc2ccc(OC)c(OC)c2)cc2ccsc21` was tested, and the IC50 was > 10000 nM (inactive).
In the case of `Cn1c(C(=O)NCCc2ccc3c(c2)OCO3)cc2ccccc21`, the IC50 was > 10000 nM (inactive).
For `CCOc1ccc(CCNC(=O)c2cc3sc(Cl)cc3n2C)cc1OCC`, the pIC50 was 7.16.
`CCOc1ccc(CCNC(=O)Cn2cccc2C(=O)c2ccccc2C)cc1OCC` was tested, and the pIC50 was 6.46.
`CCOc1ccc(CCNC(=O)c2cc3ccccc3n2C)cc1OC` showed a pIC50 of 6.09.
`CCOc1ccc(CCNC(=O)COC(=O)c2cc(OC)c(OC)c(OC)c2)cc1OCC` gave a pIC50 of 6.98.
For `COc1ccc(CCNC(=O)c2cc3sccc3n2C)cc1OC`, the IC50 was 8370 nM (inactive).
`CCn1c(C(=O)Nc2ccc(OC)c(OC)c2)cc2sccc21` was tested, and the IC50 was > 10000 nM (inactive).
`Cn1c(=O)cc(SCC(=O)Nc2ccc3c(c2)OCO3)c2ccccc21` was tested, and the IC50 was > 10000 nM (inactive).
`CCOc1ccc(CCNC(=O)c2cc3sccc3n2CC)cc1OC` was tested, and the pIC50 was 6.58.
With `COc1ccc(CCNC(=O)c2cc3ccccc3n2C)cc1OC` the IC50 was > 10000 nM (inactive).
Work on `CCOc1ccc(CCNC(=O)Cn2cccc2C(=O)c2ccccc2)cc1OCC` yielded a pIC50 of 6.38.
`CCOc1ccc(CCNC(=O)CCC(=O)N2CCSc3ccccc32)cc1OCC` gave a pIC50 of 7.16.
`CCn1c(C(=O)NCc2ccc3c(c2)OCO3)cc2sccc21` was tested, and the IC50 was > 10000 nM (inactive).
`CCOc1cc(CCNC(=O)c2ccc(N3CCOCC3)s2)ccc1OC` showed a pIC50 of 5.63.
In the case of `CCn1c(C(=O)Nc2ccc3c(c2)OCO3)cc2ccsc21`, the IC50 was > 10000 nM (inactive).
`CCOc1ccc(CCNC(=O)CCc2nnc3ccc(N4CCCC4)nn23)cc1OCC` was tested, and the pIC50 was 6.11.
`Cn1c(=O)cc(SCC(=O)NCCc2ccc3c(c2)OCO3)c2ccccc21` was tested, and the IC50 was > 10000 nM (inactive).
Compound `O=C(NCCc1ccc2c(c1)OCO2)c1cc(-c2ccccc2)c(N2CCOCC2)s1` has a pIC50 of 5.49.
In the case of `CCOc1ccc(CCNC(=O)c2cc3ccsc3n2C)cc1OC`, the pIC50 was 5.96.
Compound `CCOc1ccc(CCNC(=O)CCC(=O)N2CCOc3ccc(C)cc32)cc1OCC` has a pIC50 of 6.63.
In the case of `COc1ccc(CNC(=O)c2cc3ccsc3n2C)cc1OC`, the IC50 was > 10000 nM (inactive).
Work on `CCOc1cc(CCNC(=O)c2cc3ccsc3n2C)ccc1OC` yielded a pIC50 of 6.19.
For `CCn1c(C(=O)Nc2ccc3c(c2)OCO3)cc2sccc21`, the IC50 was > 10000 nM (inactive).
For `COc1ccc(CCNC(=O)c2cc(-c3ccccc3)c(N3CCOCC3)s2)cc1OC`, the pIC50 was 6.57 and 6.73.
`CCOc1ccc(CCNC(=O)c2cc3sccc3n2C)cc1OCC` showed a pIC50 of 6.91.
`CCOc1ccc(CCNC(=O)COC(=O)c2cc(OC)cc(OC)c2)cc1OCC` showed a pIC50 of 5.96.
In the case of `CCOc1cc(CCNC(=O)c2cc3sccc3n2CC)ccc1OC`, the pIC50 was 7.20.
Compound `CCn1c(C(=O)NCc2cc(OC)c(OC)c(OC)c2)cc2sccc21` has a pIC50 of 5.32.
For `Cn1c(=O)cc(SCC(=O)NCc2ccc3c(c2)OCO3)c2ccccc21`, the IC50 was > 10000 nM (inactive).
`CCOc1cc(CCNC(=O)c2cc3ccccc3n2C)ccc1OC` was tested, and the pIC50 was 5.98.
`COc1cc(CNC(=O)CSc2cc(=O)n(C)c3ccccc23)cc(OC)c1OC` was tested, and the IC50 was > 10000 nM (inactive).
In the case of `CCOc1ccc(CCNC(=O)CN2C(=O)c3cccnc3Oc3ccc(C)cc32)cc1OCC`, the pIC50 was 6.89.
For `COc1ccc(CCNC(=O)c2cc3sc(Cl)cc3n2C)cc1OC`, the IC50 was 7020 nM (inactive).
In the case of `CCOc1ccc(CCNC(=O)c2cc(-c3ccccc3)c(N3CCOCC3)s2)cc1OCC`, the pIC50 was 8.21 and 8.19.
`CCOc1ccc(CCNC(=O)c2cc3sccc3[nH]2)cc1OCC` was tested, and the pIC50 was 6.19.
Compound `CCOc1ccc(CCNC(=O)CSc2cc(=O)n(CC)c3ccccc23)cc1OCC` has a pIC50 of 6.01.
For `COc1ccc(CNC(=O)CSc2cc(=O)n(C)c3ccccc23)cc1OC`, the IC50 was > 10000 nM (inactive).
`COc1ccc(CCNC(=O)c2cc(-c3ccccc3)c(N3CCOCC3)s2)c(OC)c1OC` showed a pIC50 of 7.05.
With `COc1ccc(CCNC(=O)CSc2cc(=O)n(C)c3ccccc23)cc1OC` the IC50 was > 10000 nM (inactive).
`CCOc1ccc(CCNC(=O)c2nnc(Cc3ccc(F)cc3)o2)cc1OCC` was tested, and the pIC50 was 6.46.
With `O=C(NCCc1ccc2c(c1)OCO2)c1cc2sccc2[nH]1` the IC50 was > 10000 nM (inactive).
With `CCOc1ccc(CCNC(=O)COC(=O)c2ccc(OC)c(OC)c2OC)cc1OCC` the pIC50 was 7.43.

— PubChem BioAssay AID504440 (Sanford-Burnham Center for Chemical Genomics, 2011)
